Experimental data taken from patent US11022604B2, “Dock derived compound against laminin receptor (37 LR) and uses thereof” (Purdue Research Foundation, priority 2017, dated 2021).

Assays:
PC-3 cells = test: Wound healing (scratch) assay; type: cell-based; conditions: PC3, 50 uM, 48 h
Experimental: PC-3 cells were treated with 1, 10, 50 μM C3 or DMSO control after scratch formation and images were recorded using a brightfield microscope as described in the methods. […] Brightfield images were quantified using the t-scratch program and represented as % scratch closure after 48 hours of migration compared to a 0 hour control (n=9, mean±SEM). A one-way ANOVA test was used for statistical analysis (p<0.05).
Wound Healing Assay. PC-3 cells were seeded in 6 well plates at 3×10^5 cells per well in complete media until the cells reached confluency. Three horizontal and three vertical scratches were made in the confluent monolayers using a standard 200 μL pipette tip and cellular debris were removed by washing with 1×DPBS three times. 1×RPMI-1640 supplemented with C3 or DMSO was added and cells were incubated for 48 hours as described previously. […] Images were uploaded and analyzed for scratch geometry using the tscratch program (96). First, global thresholding was performed, then individual images were manually inspected for single image threshold adjustment and scratch geometries were quantified. […] The samples were analyzed using the Dionex UltiMate 3000 RSLC Nano System coupled to the Q Exactive™ HF Hybrid Quadrupole-Orbitrap MS (Thermo Scientific). […] Label free quantitation (LFQ) was performed using a minimum ratio count of 2 with fast LFQ. […]

THP-1 human monocytes = test: Inflammatory gene expression (qPCR) in LPS-stimulated THP-1 macrophages; type: cell-based
Experimental: FIG. 17—Fold change in inflammatory gene expression when THP-1 monocytes are treated with Compounds of Interest. […] PL, PMA-differentiated and treated with LPS. P18, PEDF peptide. (*, p<0.05 relative to PL)
Cell Culture. THP-1 human monocytes were purchased from ATCC (Manassas, Va.) and cultured in DMEM/10% FBS/1% Anti-Anti (Gibco). The monocytes were differentiated into macrophages with 5 ng/ml […] (PMA) for 48 h and pretreated with drugs for 6 h. Lipopolysaccharide (LPS, 10 ng/ml) stimulation was performed for 1 h and cells were collected for assays. Human adipose-derived mesenchymal stromal/stem cells (ASC) were purchased from LaCell, LLC (Metairie, La.) and grown on fibronectin-coated plates in MCDB-201/DMEM/10% FBS media. RNA isolation and qPCR. RNA was isolated from cell pellets using an RNAeasy kit (Qiagen) according to manufacturers' specifications for tissue samples. 1 μg RNA was reverse transcribed using a AmfiRivert kit (Genedepot) and 2 μl used in a SYBR green quantitative PCR reaction for detecting differences in gene expression relative to beta-actin control. Luciferase Assays. THP-1 human monocytes were seeded in OptiMEM/1% anti-anti (Gibco) and transfected using Lipofectamine LTX (Invitrogen, Carlsbad, Calif.) in a 96-well format in white opaque plates. […] The samples were read in a BiotekNeo (Bindley Bioscience Center). […]

O=C(c1cc(F)cc2c1OCOC2)N1CCN(C2c3ccccc3-c3ccccc32)CC1 [Compound C3, [4-(9h-fluoren-9-yl)piperazino](6-fluoro-4h-1,3-benzodioxin-8-yl)methanone]
prevention of wound closure (PC-3 cells): ~70% | reduction of IL-1β expression (THP-1 human monocytes): ~8 fold
